Source: patent US6706663B2, “Herbicidal 3-heterocyclic substituted benzisothiazole and benzisoxazole compounds” (Wyeth, priority 2000, dated 2004)

What was measured:
[1] = system: SETVI (Setaria viridis); assay: Postemergence herbicidal evaluation; type: in vivo, (L.) Beau; conditions: for SETVI herbicidal rating: postemergence
Outline: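 First, seedlings are raised in flats for about two weeks. Next, compound dispersed in 50/50 acetone/water with 0.5% TWEEN 20 is sprayed at 40 psi to deliver about 0.0040–1.000 kg/ha. Plants are then maintained in the greenhouse and rated 0-9 after four to five weeks.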

[2] = system: ORYSAT (Rice, Tebonnet); assay: Flooded paddy, post-transplant rice tolerance; type: in vivo, Oryza sativa, (L.) Tebonnet; conditions: flooded paddy, post-transplant rice, rated 3-4 weeks after treatment, 0-9 rating scale
Outline: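 Visual 0–9 injury rating against a control, covering stand, vigor, malformation, size, chlorosis and overall appearance. Treatment was post-transplant onto flooded containers (water 1.5–3 cm deep, silt loam) holding two ten-day-old cv. Tebonnet seedlings, maintained on greenhouse benches.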

[3] = system: ECHCG (Echinochloa crus-galli); assay: Preemergence herbicidal evaluation; type: in vivo, (L.) Beau; conditions: rated 4-5 weeks after treatment
Outline: (§1)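 Visual 0-9 rating versus untreated control, taken four to five weeks post-treatment, scoring stand, vigor, malformation, size, chlorosis and overall appearance. Compound applied as aqueous acetone spray to freshly seeded soil cups, then kept under standard greenhouse care.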

[4] = system: SETVI (Setaria viridis); assay: Preemergence herbicidal evaluation; type: in vivo, (L.) Beau; conditions: rated 4-5 weeks after treatment
Outline: as §1

[5] = system: ORYSAT (Rice, Tebonnet); assay: Postemergence herbicidal evaluation; type: in vivo, Oryza sativa, (L.) Tebonnet; conditions: for ORYSAT herbicidal rating: postemergence
Outline: (§2)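 Visual 0–9 injury scores versus control plants, covering stand, vigour, malformation, size, chlorosis and general appearance, taken four to five weeks post-spray and averaged over replicate tests. Plants were sprayed at roughly two weeks old and held on greenhouse benches.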

[6] = system: ABUTH (Abutilon theophrasti); assay: Preemergence herbicidal evaluation; type: in vivo, Medic.; conditions: rated 4-5 weeks after treatment
[7] = system: MOOVA (Monochoria vaginalis); assay: Flooded paddy, preemergence weed control; type: in vivo, Presl.; conditions: rated 3-4 weeks after treatment, 0-9 rating scale
Outline: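 Visual 0-9 rating versus control, scoring stand, vigor, malformation, size, chlorosis and overall appearance. Silt loam soil, propagules in top 0.5 cm; flood depth 1.5–3 cm held for the whole test; greenhouse.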

[8] = system: TRZAWR (Wheat, Winter, cv Riband); assay: Postemergence herbicidal evaluation; type: in vivo, Triticum aestivum; conditions: for TRZAWR herbicidal rating: postemergence
Outline: as §2

Compound | herbicidal rating, ORYSAT (rice tolerance) ([2]; rate 0.0080 kg/ha) | herbicidal rating, ORYSAT (rice tolerance) ([2]; rate 0.0320 kg/ha) | herbicidal rating, ORYSAT (rice tolerance) ([2]; rate 0.1250 kg/ha) | Preemergence herbicidal rating ECHCG ([3]; Rate 0.0620 kg/ha) | Preemergence herbicidal rating ECHCG ([3]; Rate 0.1250 kg/ha) | Preemergence herbicidal rating ECHCG ([3]; Rate 0.2500 kg/ha) | Preemergence herbicidal rating SETVI ([4]; Rate 0.0620 kg/ha) | Preemergence herbicidal rating SETVI ([4]; Rate 0.1250 kg/ha) | Preemergence herbicidal rating SETVI ([4]; Rate 0.2500 kg/ha) | Preemergence herbicidal rating ABUTH ([6]; Rate 0.0620 kg/ha) | Preemergence herbicidal rating ABUTH ([6]; Rate 0.1250 kg/ha) | Preemergence herbicidal rating ABUTH ([6]; Rate 0.2500 kg/ha) | herbicidal rating, MOOVA ([7]; rate 0.0320 kg/ha) | herbicidal rating, MOOVA ([7]; rate 0.1250 kg/ha) | Postemergence herbicidal rating, SETVI ([1]; rate 0.0320 kg/ha) | Postemergence herbicidal rating, SETVI ([1]; rate 0.0620 kg/ha) | Postemergence herbicidal rating, ORYSAT ([5]; rate 0.0320 kg/ha) | Postemergence herbicidal rating, ORYSAT ([5]; rate 0.0620 kg/ha) | Postemergence herbicidal rating, TRZAWR ([8]; rate 0.0320 kg/ha) | Postemergence herbicidal rating, TRZAWR ([8]; rate 0.0620 kg/ha) | other results
Cn1c(C(F)(F)F)cc(=O)n(-c2cc3c(C4OCCCO4)nsc3cc2F)c1=O [Compound 62, 3-(3-m-dioxan-2-yl-6-fluoro-1,2-benzisothiazol-5-yl)-1-methyl-6-(trifluoromethyl)uracil] | 9.0 | 9.0 | 9.0 | 9.0 | 9.0 | 9.0 | 9.0 | 9.0 | 9.0 | 9.0 | 9.0 | 9.0 | 9.0 | 9.0 |  |  |  |  |  |  | SETVI herbicidal rating ([1]; rate 0.0320 kg/ha): 9.0; SETVI herbicidal rating ([1]; rate 0.0620 kg/ha): 9.0; ORYSAT herbicidal rating ([5]; rate 0.0320 kg/ha): 6.0; ORYSAT herbicidal rating ([5]; rate 0.0620 kg/ha): 6.0; herbicidal rating, MOOVA ([7]; rate 0.0080 kg/ha): 8.0; TRZAWR herbicidal rating ([8]; rate 0.0320 kg/ha): 6.5; TRZAWR herbicidal rating ([8]; rate 0.0620 kg/ha): 6.5
Cc1ccc(-c2nsc3ccc(N4C(=O)C5=C(CCCC5)C4=O)cc23)s1 [Compound 20, N-[3-(5-methyl-2-thienyl)-1,2-benzisothiazol-5-yl]-1-cyclohexene-1,2-dicarboximide] |  | 2.0 | 2.0 |  |  |  |  |  |  |  |  |  | 9.0 | 9.0 | 2.0 | 2.0 | 2.5 | 3.0 | 3.5 | 4.0 | Postemergence herbicidal rating, SETVI ([1]; rate 0.1250 kg/ha): 2.0; ECHCG preemergence herbicidal rating ([3]; Rate 0.0620 kg/ha): 0.0; ECHCG preemergence herbicidal rating ([3]; Rate 0.1250 kg/ha): 0.0; ECHCG preemergence herbicidal rating ([3]; Rate 0.2500 kg/ha): 0.0; SETVI preemergence herbicidal rating ([4]; Rate 0.0620 kg/ha): 0.0; SETVI preemergence herbicidal rating ([4]; Rate 0.1250 kg/ha): 0.0; SETVI preemergence herbicidal rating ([4]; Rate 0.2500 kg/ha): 0.0; Postemergence herbicidal rating, ORYSAT ([5]; rate 0.1250 kg/ha): 4.5; ABUTH preemergence herbicidal rating ([6]; Rate 0.0620 kg/ha): 1.0; ABUTH preemergence herbicidal rating ([6]; Rate 0.1250 kg/ha): 2.0; ABUTH preemergence herbicidal rating ([6]; Rate 0.2500 kg/ha): 4.0; Postemergence herbicidal rating, TRZAWR ([8]; rate 0.1250 kg/ha): 4.5
Cc1cccnc1-c1nsc2cc(F)c(-n3c(=O)cc(C(F)(F)F)n(C)c3=O)cc12 [Compound 44, 3-[6-fluoro-3-(3-methyl-2-pyridyl)-1,2-benzisothiazol-5-yl]-1-methyl-6-(trifluoromethyl)uracil] | 0.0 | 7.5 | 7.5 | 9.0 | 9.0 | 9.0 | 9.0 | 9.0 | 9.0 | 9.0 | 9.0 | 9.0 | 8.5 | 9.0 | 9.0 | 9.0 | 2.0 | 3.5 | 4.0 | 5.0 | herbicidal rating, MOOVA ([7]; rate 0.0080 kg/ha): 0.0
CCOC(=O)C1CS[C@H](c2nsc3ccc(-n4c(=O)cc(C(F)(F)F)n(C)c4=O)cc23)N1 (stereo partly drawn) [Compound 2, ethyl (R)-2-[5-[3,6-dihydro-3-methyl-2,6-dioxo-4-(trifluoromethyl)-1(2H)-pyrimidinyl]-1,2-benzisothiazol-3-yl]-4-thiazolidinecarboxylate] |  | 1.0 | 4.0 |  |  |  |  |  |  |  |  |  | 6.0 | 9.0 | 6.0 | 7.0 | 5.0 | 6.5 | 5.0 | 6.5 | ECHCG preemergence herbicidal rating ([3]; Rate 0.0620 kg/ha): 2.5; ECHCG preemergence herbicidal rating ([3]; Rate 0.1250 kg/ha): 6.0; ECHCG preemergence herbicidal rating ([3]; Rate 0.2500 kg/ha): 8.0; SETVI preemergence herbicidal rating ([4]; Rate 0.0620 kg/ha): 8.0; SETVI preemergence herbicidal rating ([4]; Rate 0.1250 kg/ha): 8.0; SETVI preemergence herbicidal rating ([4]; Rate 0.2500 kg/ha): 9.0; ABUTH preemergence herbicidal rating ([6]; Rate 0.0620 kg/ha): 9.0; ABUTH preemergence herbicidal rating ([6]; Rate 0.1250 kg/ha): 9.0; ABUTH preemergence herbicidal rating ([6]; Rate 0.2500 kg/ha): 9.0
